Test [1] deals with p21 induction in HCT 116 cells. Kind of test: p21 induction in cells (In-Cell Western, p21/GAPDH ratio). Type of test: cell-based. The following applies: Homo sapiens, HCT-116, 24 h, 24 h compound incubation, read-out: P21_EC50. The method, boiled down: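 p21 and GAPDH signals quantified by In-Cell Western after 24 h compound exposure of HCT 116 cells (11 concentrations, 2-fold steps, usual top 10 μM). Percent activation from p21/GAPDH ratio relative to DMSO (low) and internal WRN inhibitor (high) controls; curve fit gave EC50.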

In test [2] the target is T1, human Werner helicase (WRN, Uniprot Q14191, amino acids 517-1235 with L1074F point mutation; WRN-BV08) (Homo sapiens, UniProt Q14191, L1074F).
T1 construct: Uniprot Q14191, amino acids 517-1235 with L1074F point mutation; 8xHis (C, cleaved yes); TEV cleavage site (ENLYFQG) (C, cleaved yes); made in house; host or cells: Sf9 insect cells (baculovirus, pFastBac)
T1 sequence (Q14191 with tags, fused parts or gaps L1074F): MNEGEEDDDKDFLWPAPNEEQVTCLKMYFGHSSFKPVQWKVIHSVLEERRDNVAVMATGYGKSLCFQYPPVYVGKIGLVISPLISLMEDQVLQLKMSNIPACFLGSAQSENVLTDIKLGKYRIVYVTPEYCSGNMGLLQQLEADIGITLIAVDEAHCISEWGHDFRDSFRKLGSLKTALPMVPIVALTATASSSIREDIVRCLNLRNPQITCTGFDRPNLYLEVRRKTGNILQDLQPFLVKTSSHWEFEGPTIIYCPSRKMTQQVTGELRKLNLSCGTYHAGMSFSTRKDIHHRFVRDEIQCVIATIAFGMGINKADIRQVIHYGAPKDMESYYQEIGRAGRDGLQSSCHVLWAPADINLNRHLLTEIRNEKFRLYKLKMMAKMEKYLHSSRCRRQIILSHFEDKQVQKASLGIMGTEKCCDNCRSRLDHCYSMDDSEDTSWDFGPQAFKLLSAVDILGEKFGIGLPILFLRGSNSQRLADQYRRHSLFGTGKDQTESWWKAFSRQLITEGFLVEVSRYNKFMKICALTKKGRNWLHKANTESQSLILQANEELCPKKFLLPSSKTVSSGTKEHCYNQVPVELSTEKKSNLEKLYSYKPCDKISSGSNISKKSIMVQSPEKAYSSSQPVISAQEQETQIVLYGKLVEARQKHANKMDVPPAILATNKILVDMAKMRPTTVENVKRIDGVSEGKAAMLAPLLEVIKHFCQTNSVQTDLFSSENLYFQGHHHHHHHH
The experiment in a line: WRN (BV08) ADP-Glo assay. It counts as biochemical. As to conditions: WRN-BV08 (aa 517-1235, L1074F); read-out: ADP-Glo_hWRN_IC50. The method, boiled down: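 ADP formed by untagged WRN helicase fragment (aa 517-1235, L1074F; 0.15 nM final) on 0.1 nM DNA duplex with […], 60 min at 25 °C after 15 min compound preincubation, pH 7.5 Bicine buffer. Luminescent ADP-Glo readout; IC50 from 4-parameter fit of % inhibition.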
(In general: ADP-Glo first removes unused ATP, then detects ADP through luciferase.)

For `CCc1c(N2CCN(C(=O)c3ncnc(C)c3O)CC2)c(=O)n2nc(-c3ccnc(OC)c3)nc2n1CC(=O)NC12CC(C(F)(F)F)(C1)C2` [I-4, 2-(5-ethyl-6-(4-(5-hydroxy-6-methylpyrimidine-4-carbonyl)piperazin-1-yl)-2-(2-methoxypyridin-4-yl)-7-oxo-[1,2,4]triazolo[1,5-a]pyrimidin-4(7H)-yl)-N-(3-(trifluoromethyl)bicyclo[1.1.1]pentan-1-yl)acetamide], the EC50 in test [1] is 2000 to 5000 nM. For the same compound, the IC50 in test [2] is 5 to 50 nM.

The values above are taken from US20250206738A1, “WRN INHIBITORS” (Nimbus Wadjet, Inc., priority 2023, published 2025).
